Measured values as given in patent publication US20200317660A1, “Quinazolinone Compound and Application Thereof” (LUOXIN PHARMACEUTICAL (SHANGHAI) CO., LTD., priority 2017, published 2020).
Like-named read-outs stand apart in the source and are kept apart here.

Experiments:
PI3Kβ = biological target: T1, PI3Kβ (Homo sapiens, UniProt P42338); assay: In vitro test of enzyme activity (ADP-Glo lipokinase), PI3K beta; type: biochemical; settings: 40 μM ATP, 50 μM PIP2:3PS, 120 min
T1 construct: purchased Promega V1751
T1 sequence (P42338 whole entry): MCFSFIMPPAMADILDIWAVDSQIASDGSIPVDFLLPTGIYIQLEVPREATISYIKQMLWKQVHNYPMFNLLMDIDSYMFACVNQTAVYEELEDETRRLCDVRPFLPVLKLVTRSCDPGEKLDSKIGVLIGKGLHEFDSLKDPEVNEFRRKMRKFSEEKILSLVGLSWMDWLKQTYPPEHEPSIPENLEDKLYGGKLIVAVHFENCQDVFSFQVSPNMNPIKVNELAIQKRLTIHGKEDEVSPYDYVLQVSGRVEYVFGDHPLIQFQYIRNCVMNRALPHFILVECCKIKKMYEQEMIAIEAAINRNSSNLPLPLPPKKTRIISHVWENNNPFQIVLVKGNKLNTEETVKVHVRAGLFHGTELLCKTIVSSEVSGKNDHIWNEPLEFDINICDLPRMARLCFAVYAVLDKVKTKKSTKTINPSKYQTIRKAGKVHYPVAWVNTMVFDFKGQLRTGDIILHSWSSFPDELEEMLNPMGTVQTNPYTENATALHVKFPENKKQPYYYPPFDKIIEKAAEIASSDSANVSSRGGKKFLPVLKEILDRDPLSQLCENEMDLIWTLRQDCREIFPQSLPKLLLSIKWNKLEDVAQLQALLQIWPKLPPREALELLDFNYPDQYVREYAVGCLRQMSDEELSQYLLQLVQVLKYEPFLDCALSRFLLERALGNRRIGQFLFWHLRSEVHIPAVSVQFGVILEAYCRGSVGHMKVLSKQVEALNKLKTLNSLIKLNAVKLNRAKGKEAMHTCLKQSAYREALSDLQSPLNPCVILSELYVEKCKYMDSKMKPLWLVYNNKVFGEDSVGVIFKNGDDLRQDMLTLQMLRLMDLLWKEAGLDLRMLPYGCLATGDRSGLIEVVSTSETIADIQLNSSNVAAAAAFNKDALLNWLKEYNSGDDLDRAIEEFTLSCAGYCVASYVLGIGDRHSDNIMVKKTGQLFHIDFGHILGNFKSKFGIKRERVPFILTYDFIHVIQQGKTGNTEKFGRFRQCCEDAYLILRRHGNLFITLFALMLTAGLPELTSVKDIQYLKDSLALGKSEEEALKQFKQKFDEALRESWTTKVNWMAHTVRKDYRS
T1 sequence (P27986 whole entry partner): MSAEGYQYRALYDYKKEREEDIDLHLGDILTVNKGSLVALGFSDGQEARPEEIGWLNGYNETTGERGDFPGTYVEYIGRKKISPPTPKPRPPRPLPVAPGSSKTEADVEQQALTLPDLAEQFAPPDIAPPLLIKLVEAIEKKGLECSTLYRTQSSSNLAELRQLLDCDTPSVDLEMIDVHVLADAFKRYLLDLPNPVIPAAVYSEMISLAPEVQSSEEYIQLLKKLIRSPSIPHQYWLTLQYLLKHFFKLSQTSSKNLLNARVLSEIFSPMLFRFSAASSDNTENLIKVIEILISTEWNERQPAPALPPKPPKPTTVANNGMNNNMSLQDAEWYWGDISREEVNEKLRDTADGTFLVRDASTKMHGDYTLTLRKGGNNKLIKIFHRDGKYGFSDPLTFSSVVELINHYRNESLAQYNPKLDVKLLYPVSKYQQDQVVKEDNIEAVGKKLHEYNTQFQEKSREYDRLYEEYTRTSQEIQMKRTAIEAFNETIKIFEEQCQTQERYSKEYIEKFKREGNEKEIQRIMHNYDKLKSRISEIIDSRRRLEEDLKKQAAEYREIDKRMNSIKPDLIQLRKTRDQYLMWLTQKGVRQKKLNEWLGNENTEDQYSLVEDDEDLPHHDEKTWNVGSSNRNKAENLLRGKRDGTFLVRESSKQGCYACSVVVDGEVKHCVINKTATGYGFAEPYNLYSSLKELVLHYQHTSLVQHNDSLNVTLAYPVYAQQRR

[1] = tested on: phosphorylation of PI3K downstream protein Akt in MCF7 cells; assay: In vitro test of cells activity: ELISA of Akt phosphorylation in MCF7 cells; type: cell-based; settings: 2 h compound, insulin 10 μg/mL stimulation, pAkt ELISA, read-out: MCF7 Cell IC50
Method: 2. In vitro test of cells activity
By the method of ELISA, the inhibition level of the test compound on the phosphorylation of PI3K downstream protein Akt in the signaling pathway was determined in MCF7 cells line to reflect the cells activity of the compound.
Cell culture medium: complete cell culture medium (RPMI 1640+10% serum+1% L-glutamine+1% double antibody)
Serum-free medium (without serum, RPMI 1640+1% L-glutamine+1% double antibody)
The detailed procedures areas follows:
(1) MCF7 cells (ATCC® HTB-22™) were inoculated into a 96-well plate at 100 μL of cell complete medium per well (2.5*10^4 cells per well), and the cells were incubated at 37° C. and 5% CO2 for 24 hours.
(2) The complete cell culture medium was replaced with 100 μL of serum-free medium, and incubated for starvation overnight.
(3) The compound was prepared (The initial concentration of the compound is 1 mM, which was subjected to a three-fold dilution in 10 concentrations, and the compound of each concentration was then diluted 100-fold with serum-free medium). 25 μL of the diluted compound was added to the cells orifice plate.
(4) The cells were incubated at 37° C. and 5% CO2 for 2 hours.
(5) The cells in the well plate were stimulated with 10 μg/mL insulin (Sigma # I9278-5 mL), incubated for 30 minutes, and then centrifuged at 1000 rpm for 5 minutes at room temperature.
(6) 250 μL of 1× balanced salt solution (Invitrogen, #14065-056, 4° C., containing 1 mM/L Na3VO4) was added to each well to wash the cells once.
(7) 100 μL of lysis buffer (trimethylolaminomethane hydrochloride, Invitrogen, #15567-1000 ml) was added to each well, shaken at 4° C. for 60 minutes, and then centrifuged at 4000 rpm for 4 minutes.
(8) The following procedures were carried out according to the instructions of ELISA kit (TGR BioSciences # EKT002).

PI3K = settings: literature statement; cited from earlier work
PI3Kα = biological target: T2, PI3Kα (Homo sapiens, UniProt P42336); assay: In vitro test of enzyme activity (ADP-Glo lipokinase), PI3K alpha; type: biochemical; settings: 40 μM ATP, 50 μM PIP2:3PS, 120 min
T2 construct: purchased Millipore 14-602-K
T2 sequence (P42336 whole entry): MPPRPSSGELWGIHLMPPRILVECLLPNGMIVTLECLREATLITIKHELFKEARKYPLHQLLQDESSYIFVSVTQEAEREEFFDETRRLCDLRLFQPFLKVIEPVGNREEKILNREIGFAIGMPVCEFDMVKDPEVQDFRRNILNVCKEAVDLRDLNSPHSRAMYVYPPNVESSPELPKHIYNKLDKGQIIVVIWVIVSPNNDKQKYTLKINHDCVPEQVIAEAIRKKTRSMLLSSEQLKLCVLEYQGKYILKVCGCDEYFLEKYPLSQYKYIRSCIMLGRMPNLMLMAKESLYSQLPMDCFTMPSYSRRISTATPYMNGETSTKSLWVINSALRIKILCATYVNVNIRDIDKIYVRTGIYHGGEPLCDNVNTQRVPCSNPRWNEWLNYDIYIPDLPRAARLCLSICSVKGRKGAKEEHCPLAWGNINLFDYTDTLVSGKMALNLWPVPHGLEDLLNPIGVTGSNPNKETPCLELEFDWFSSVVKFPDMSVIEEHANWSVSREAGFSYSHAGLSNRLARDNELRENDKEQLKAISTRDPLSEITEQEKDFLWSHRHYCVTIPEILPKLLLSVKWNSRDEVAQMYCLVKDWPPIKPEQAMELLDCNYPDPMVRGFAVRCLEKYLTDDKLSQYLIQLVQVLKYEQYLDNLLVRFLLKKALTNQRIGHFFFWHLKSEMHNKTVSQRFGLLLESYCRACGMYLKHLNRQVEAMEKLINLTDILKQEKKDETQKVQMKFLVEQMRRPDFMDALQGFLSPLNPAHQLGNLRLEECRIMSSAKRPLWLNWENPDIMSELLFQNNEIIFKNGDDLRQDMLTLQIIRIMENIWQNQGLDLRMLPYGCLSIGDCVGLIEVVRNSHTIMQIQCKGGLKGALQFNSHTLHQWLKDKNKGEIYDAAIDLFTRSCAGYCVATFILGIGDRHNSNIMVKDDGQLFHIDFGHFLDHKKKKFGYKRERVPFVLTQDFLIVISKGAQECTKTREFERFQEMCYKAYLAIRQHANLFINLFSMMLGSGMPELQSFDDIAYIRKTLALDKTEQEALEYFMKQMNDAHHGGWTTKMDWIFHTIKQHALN
T2 sequence (P27986 whole entry partner): as the sequence (P27986 whole entry partner) above

[2] = In vivo DMPK study in mice after a single administration; parameters: species or system female Balb/c mice; settings: oral, 10 mpk
Method: Experimental objective: female Balb/c mice were used as the test animals, and the blood concentration of the compound was determined and the pharmacokinetic behavior was evaluated after a single administration.
Experimental operation: 12 healthy adult female Balb/c mice were selected, 6 for intravenous injection group and 6 for oral administration group. The compound to be tested was mixed with an appropriate amount of intravenous injection group vehicle (10% HP-betaCD: 10% solutol=1:1, pH=8), vortex-mixed and sonicated to prepare a 1.0 mg/mL clear solution, followed by filtration for subsequent use; the vehicle in the oral group was 0.5% MC/0.2% Tw80. After the test compound and the vehicle were mixed, it was vortex-mixed and sonicated to prepare a 1.0 mg/mL homogeneous suspension for subsequent use. After an intravenous administration at a dose of 1 mg/kg or an oral administration at the dose of 2 mg/kg and 10 mg/kg, whole blood of the mice was collected for a certain period of time to prepare plasma. The drug concentration was analyzed by LC-MS/MS method, and Phoenix WinNonlin software was used (Pharsight, USA) to calculate the pharmacokinetic parameters.
Cmax: the highest concentration of the drug in the body; F %: oral bioavailability; Oral DNAUC: area under the dose normalization curve; Vd: apparent volume of distribution; Cl: clearance rate; T1/2: half-life.

PI3Kγ = biological target: T3, PI3Kγ (Homo sapiens, UniProt P48736); assay: In vitro test of enzyme activity (ADP-Glo lipokinase), PI3K gamma; type: biochemical; settings: 25 μM ATP, 50 μM PIP2:3PS, 120 min
T3 construct: purchased Millipore 14-558-K
T3 sequence (P48736 whole entry): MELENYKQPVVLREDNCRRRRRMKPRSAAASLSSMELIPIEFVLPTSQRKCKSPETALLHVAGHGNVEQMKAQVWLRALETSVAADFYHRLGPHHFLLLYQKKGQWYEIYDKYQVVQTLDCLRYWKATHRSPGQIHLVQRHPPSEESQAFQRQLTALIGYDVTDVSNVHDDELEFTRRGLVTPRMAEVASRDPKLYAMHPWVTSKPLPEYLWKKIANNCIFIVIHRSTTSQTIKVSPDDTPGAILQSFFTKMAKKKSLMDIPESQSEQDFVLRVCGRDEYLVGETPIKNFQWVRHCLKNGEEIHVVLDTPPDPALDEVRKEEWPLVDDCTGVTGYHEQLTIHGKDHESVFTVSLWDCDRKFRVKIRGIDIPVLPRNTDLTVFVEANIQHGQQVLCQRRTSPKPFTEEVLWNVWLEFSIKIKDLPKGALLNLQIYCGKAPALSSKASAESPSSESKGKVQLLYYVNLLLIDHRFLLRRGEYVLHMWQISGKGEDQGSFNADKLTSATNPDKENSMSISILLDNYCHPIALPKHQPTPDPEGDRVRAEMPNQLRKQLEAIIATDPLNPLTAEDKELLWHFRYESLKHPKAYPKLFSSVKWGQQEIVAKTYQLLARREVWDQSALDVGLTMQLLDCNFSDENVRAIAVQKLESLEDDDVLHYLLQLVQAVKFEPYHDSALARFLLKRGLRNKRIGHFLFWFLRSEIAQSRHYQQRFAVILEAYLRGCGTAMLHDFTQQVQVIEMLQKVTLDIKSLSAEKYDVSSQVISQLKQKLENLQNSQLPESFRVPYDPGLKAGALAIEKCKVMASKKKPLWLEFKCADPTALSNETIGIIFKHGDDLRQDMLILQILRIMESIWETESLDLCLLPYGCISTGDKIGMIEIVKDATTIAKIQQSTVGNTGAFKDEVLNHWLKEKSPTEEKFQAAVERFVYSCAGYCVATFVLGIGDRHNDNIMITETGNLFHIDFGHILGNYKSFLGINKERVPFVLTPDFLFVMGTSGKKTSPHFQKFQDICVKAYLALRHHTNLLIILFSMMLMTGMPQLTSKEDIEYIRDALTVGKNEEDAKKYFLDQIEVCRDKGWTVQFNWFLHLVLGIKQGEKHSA
Method: (§1) 1. In Vitro Test of Enzyme Activity
(§2) The lipokinase reaction was carried out under the conditions of a suitable substrate and ATP, followed by two steps to detect the kinase activity with the ADP-Glo™ kit. The first step was terminating the kinase reaction, wherein the remaining ATP was completely removed and only ADP was left; the second step was adding kinase detection reagents to convert ADP to ATP, accompanied by luciferin/luciferase reaction. Finally, the output value of fluorescence value was converted into kinase activity.
(§3) Experimental materials and equipments:
(§4) 2. Kit: ADP-Glo™ Lipokinase and PIP2:3PS Kit (Promega # V1792)
(§5) The kit contains: 1 mM PIP2:3PS, 10× lipid dilution buffer, 1 M magnesium chloride, 10 mM ATP, 10 mM ADP, ADP-Glo reagent, detection buffer and detection substrate.
(§6) 3. Reaction plate: OptiPlate-384, white and transparent (PerkinElmer #6007299).
(§7) 1. 10× reaction buffer: 500 mM HEPES, pH 7.5, 500 mM NaCl, 9 mM MgCl2; BSA: 10% stock solution, homemade.
(§8) 2. Final test system conditions: 1× reaction system: 50 mM HEPES, 50 mM NaCl, 3 mM MgCl2, 0.01% BSA (freshly prepared on the day of the experiment), 1% DMSO (v/v)+/−compound
(§9) 3. Reaction system: 3 μL mixture of the enzyme and the substrate (1:1)+2 μL ATP/MgCl2 mixture+5 μL ADP-Glo reagent+10 μL detection reagent.
(§10) The detailed experimental procedures are as follows:
(§11) 1. Compound dilution: 50 nL 100×compound/DMSO was transferred to the test well plate with Echo. • For PI3Kα, the compound was diluted three-fold from the highest concentration of 0.111 mM for a total of 10 concentrations. • For PI3Kβ/PI3Kδ/PI3Kγ, the compound was three-fold diluted from the highest concentration of 1.11 mM for a total of 10 concentrations.
(§12) (1) The compound to be tested was prepared and 50 nL of 100 plus compound solution or DMSO was added to the corresponding well plate.
(§13) (2) 3.33 plate reaction buffer was prepared.
(§14) (3) 3.33 solution PIP2:3PS was prepared, PIP2:3PS was thawed for at least 1 minute before use.
(§15) (4) 2.5 mM containing 5.25 mM MgCl2 was prepared.
(§16) (5) 3.33 PI3Kα/PI3Kβ/PI3Kδ/PI3Kγ solution was prepared.
(§17) (6) The lipokinase solution and the PIP2:3PS solution were mixed in a volume ratio of 1:1.
(§18) (7) 3.33: lipokinase buffer and PIP2:3PS solution were mixed in a volume ratio of 1:1.
(§19) (8) 3 μL of buffer solution and PIP2:3PS were added to the first and the second columns of the well plate.
(§20) (9) 3 μL of the mixed solution of the enzyme and PIP2:3PS was added to the wells except the first and the second columns, centrifuged for 10 seconds (1000 rpm) and incubated at 23° C. for 20 minutes.
(§21) (10) 2 μL […] was added and well was shaken.
(§22) (11) The well plate was covered and shaken for about 30 s, then the well plate was incubated at 23° C. for 2 hours.
(§23) (12) 5 μL of ADP-Glo reagent containing 10 mM MgCl2 was added.
(§24) (13) The well plate was centrifuged at 1000 rpm for 10 seconds, and the well plate was then covered, shaken for about 30 seconds, and incubated at 23° C. for 60 minutes.
(§25) (14) 10 μL kinase detection reagent was added.
(§26) (15) The well plate was centrifuged at 1000 rpm for 10 seconds, and then incubated at 23° C. for 60 minutes.
(§27) (16) The fluorescence value was measured on the Envision instrument.

PI3Kδ = biological target: T4, PI3Kδ (Homo sapiens, UniProt O00329); assay: In vitro test of enzyme activity (ADP-Glo lipokinase), PI3K delta; type: biochemical; settings: 40 μM ATP, 50 μM PIP2:3PS, 120 min
T4 construct: purchased Millipore 14-604-K
T4 sequence (O00329 whole entry): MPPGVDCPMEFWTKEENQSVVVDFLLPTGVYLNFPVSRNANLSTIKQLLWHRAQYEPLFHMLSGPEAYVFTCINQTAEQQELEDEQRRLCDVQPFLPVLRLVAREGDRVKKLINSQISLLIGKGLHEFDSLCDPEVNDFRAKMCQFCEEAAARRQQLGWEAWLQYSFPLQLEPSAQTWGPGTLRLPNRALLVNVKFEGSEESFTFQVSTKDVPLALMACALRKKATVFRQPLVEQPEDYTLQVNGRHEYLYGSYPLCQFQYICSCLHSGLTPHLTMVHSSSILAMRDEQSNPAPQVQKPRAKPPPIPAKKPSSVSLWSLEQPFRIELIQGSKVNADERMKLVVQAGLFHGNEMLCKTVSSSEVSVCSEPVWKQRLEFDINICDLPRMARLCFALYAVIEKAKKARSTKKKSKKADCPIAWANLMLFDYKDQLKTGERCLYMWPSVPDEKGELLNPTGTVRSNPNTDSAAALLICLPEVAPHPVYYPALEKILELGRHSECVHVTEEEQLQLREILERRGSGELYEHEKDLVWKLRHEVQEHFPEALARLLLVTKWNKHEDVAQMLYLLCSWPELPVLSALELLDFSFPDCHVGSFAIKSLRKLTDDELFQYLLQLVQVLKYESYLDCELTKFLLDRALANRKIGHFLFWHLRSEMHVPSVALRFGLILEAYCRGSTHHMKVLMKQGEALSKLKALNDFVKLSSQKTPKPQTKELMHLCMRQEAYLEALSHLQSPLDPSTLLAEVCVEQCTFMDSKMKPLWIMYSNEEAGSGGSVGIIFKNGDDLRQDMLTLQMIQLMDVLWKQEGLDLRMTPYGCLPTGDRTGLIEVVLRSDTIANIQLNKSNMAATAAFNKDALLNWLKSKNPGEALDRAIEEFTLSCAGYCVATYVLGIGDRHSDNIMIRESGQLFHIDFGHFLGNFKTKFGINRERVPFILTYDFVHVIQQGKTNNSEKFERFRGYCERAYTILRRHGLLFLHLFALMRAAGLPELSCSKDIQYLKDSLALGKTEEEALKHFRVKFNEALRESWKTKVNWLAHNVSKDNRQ
T4 sequence (P27986 whole entry partner): as the sequence (P27986 whole entry partner) above
Method: as §1, §2, §3, §4, §5, §6, §7, §8, §9, §10, §11, §12, §13, §14, §15, §16, §17, §18, §19, §20, §21, §22, §23, §24, §25, §26, §27

[3] = tested on: human breast cancer BT-474 cells; assay: Subcutaneous xenograft tumor model of human breast cancer BT-474 cells; type: in vivo, BALB/c nude mouse; settings: BT-474 xenograft, 30 mpk
Method: 2. In vivo drug-efficacy study
(1) BALB/c nude mouse subcutaneous xenograft tumor model of human breast cancer BT-474 cells
Human breast cancer BT-474 cells (ATCC, Manassas, Va., batch number: HTB-20) were subjected to in vitro monolayer culture, and the culture conditions were: Hybri-Care medium with 10% fetal bovine serum and 1% double antibody, 37° C. and 5% CO2 incubator. The cells were passaged by digestion with trypsin-EDTA twice a week. When the cells saturation reached 80-90%, and the quantity met the requirement, the cells was collected, counted and inoculated.
Tumor cell inoculation (tumor inoculation)
The subcutaneous implantation of the estrogen tablets (Innovative Research, Cat # SE-121, 0.36 mg/60-day release) was carried out one day before cell inoculation. 0.2 mL […] of BT-474 cells (with matrigel, volume 1:1) was subcutaneously inoculated into the right back of each mouse. When the average tumor volume reached 188 mm^3, the administration was started in groups.
Preparation of Test Substance […]
The experimental index was to evaluate whether the tumor growth was inhibited, delayed or cured. The diameter of the tumor was measured with a vernier caliper twice a week. […]
The antitumor efficacy of the compound was evaluated by TGI (%) or relative tumor proliferation rate T/C (%). […]

IC50 (PI3Kβ) | IC50 ([1]; Homo sapiens, MCF7, 2 h) | IC50 (PI3Kα) | Cmax [2] | Oral DNAUC (area under the dose normalization curve) [2] | IC50 (PI3Kγ) | IC50 [1] | IC50 (PI3Kδ) | Structure (SMILES) | inhibitory effect on PI3K (PI3K) | TGI % [3]
720 nM | – | 7.06 nM | 8.34 µM | 882.0 nM · h/mpk | 48.3 nM | 9.04 nM | 47.4 nM | CNC(=O)C(C)Cn1cnc2ccc(-c3cnc(OC)c(NS(=O)(=O)c4ccc(F)cc4C)c3)cc2c1=O (single isomer, unassigned) [WX181] | – | –
589 nM | – | 5.49 nM | – | – | 54.2 nM | 56.1 nM | 18.7 nM | COc1ncc(-c2ccc3ncn(CC(C)C(=O)NCC(F)(F)F)c(=O)c3c2)cc1NS(=O)(=O)c1ccc(F)cc1Cl (single isomer, unassigned) [WX058] | – | 60.0%
278 nM | – | 2.22 nM | 8.41 µM | 734 nM · h/mpk | 31.4 nM | 17.2 nM | 18.8 nM | CNC(=O)C(C)Cn1cnc2ccc(-c3cnc(OC)c(NS(=O)(=O)c4cc(C)ccc4Cl)c3)cc2c1=O (single isomer, unassigned) [WX214] | – | –
355 nM | – | 3.35 nM | 5 µM | 1372 nM · h/mpk | 41.3 nM | 19 nM | 30.7 nM | CNC(=O)C(C)Cn1cnc2ccc(-c3cnc(OC)c(NS(=O)(=O)c4ccc(F)cc4)c3)cc2c1=O (single isomer, unassigned) [WX087] | – | –

The remaining lines, values behind:

Structure (SMILES) | IC50 (PI3Kβ) | IC50 ([1]; Homo sapiens, MCF7, 2 h) | IC50 (PI3Kα) | Cmax [2] | Oral DNAUC (area under the dose normalization curve) [2] | IC50 (PI3Kγ) | IC50 [1] | IC50 (PI3Kδ) | inhibitory effect on PI3K (PI3K) | TGI % [3]
COc1ncc(-c2ccc3ncn(CCN(C)C)c(=O)c3c2)cc1NS(=O)(=O)c1ccc(F)cc1 [R011, reference compound] | 168 nM | 230 nM | 74.5 nM | – | – | – | – | – | good inhibitory effect | –
CCN(CC)CCn1cnc2ccc(-c3cnc(OC)c(NS(=O)(=O)c4ccc(F)cc4F)c3)cc2c1=O [R012, reference compound] | 67.9 nM | > 1000 nM | 13.9 nM | – | – | – | – | – | good inhibitory effect | –
